Several values for one entry are separate records, joined by “and”; a condition that tells them apart may be missing. Identical values can stand only once. Results filed as inconclusive are left out.
Tested on: nude mice, LX-1 lung xenograft intrarenal, tumor weight T/C
Assay: NCI In Vivo Anticancer Drug Screen. Data for tumor model Human Lung LX-1 Xenograft (intrarenal inoculation) in NU/NU Swiss (nude) mice
Details: endpoint: mean tumor weight change, higher = larger tumour
Method: The antitumor activity of compounds was measured in mice bearing transplantable tumors. Survival or tumor size were measured and the results are expressed as the measurement made in the treated group (T) divided by the measurement made in the vehicle treated control group (C). The tumor model used in this assay is Human Lung LX-1 Xenograft (intrarenal inoculation) in NU/NU Swiss (nude) mice

[1] = dose: 75.0 mg/kg/injection, schedule: Q04DX003 (sc), vehicle: Klucel (hydroxypropylcellulose) (HPC)
[2] = dose: 150.0 mg/kg/injection, schedule: Q04DX003 (sc), vehicle: Klucel (hydroxypropylcellulose) (HPC)

`O=c1s[se]c2ccccc12` was tested, and the T/C [1] was 66 % of control and the T/C [2] was 59 % of control.

`Nc1nc(-c2ccccc2)c(Br)c(=O)[nH]1` was tested, and the T/C (dose: 300.0 mg/kg/injection, schedule: Q04DX003 (sc), vehicle: saline with Tween-80) was 77 % of control, the T/C (dose: 600.0 mg/kg/injection, schedule: Q04DX003 (sc), vehicle: saline with Tween-80) was 69 % of control and the T/C (dose: 1200.0 mg/kg/injection, schedule: Q04DX003 (sc), vehicle: saline with Tween-80) was 54 % of control. The T/C (dose: 2400.0 mg/kg/injection, schedule: Q04DX003 (sc), vehicle: saline with Tween-80) was 66 % of control.

For `C[C@H](N)C(=O)N[C@@H]1[C@H]2C(=C(O)C[C@@H](O)[C@@H]2O)C(=O)O[C@@H]1C`, the T/C (dose: 300.0 mg/kg/injection, schedule: Q04DX003 (sc), vehicle: saline) was 113 % of control, the T/C (dose: 600.0 mg/kg/injection, schedule: Q04DX003 (sc), vehicle: saline) was 160 % of control and the T/C (dose: 900.0 mg/kg/injection, schedule: Q04DX003 (sc), vehicle: saline) was 54 % of control. The T/C (dose: 1200.0 mg/kg/injection, schedule: Q04DX003 (sc), vehicle: saline) was 92 % of control and 115 % of control and the T/C (dose: 1800.0 mg/kg/injection, schedule: Q04DX003 (sc), vehicle: saline) was 78 % of control.

`C=Cc1cnc([N+](=O)[O-])n1C` was tested, and the T/C [1] was 106 % of control, the T/C [2] was 96 % of control and the T/C (dose: 300.0 mg/kg/injection, schedule: Q04DX003 (sc), vehicle: Klucel (hydroxypropylcellulose) (HPC)) was 98 % of control. The T/C (dose: 600.0 mg/kg/injection, schedule: Q04DX003 (sc), vehicle: Klucel (hydroxypropylcellulose) (HPC)) was 92 % of control.

For `OCC1OC(n2cnc3c2NC=NC[C@H]3O)CC1O` (some centres not stated), the T/C (dose: 1.0 mg/kg/injection, schedule: Q01DX010 (sc), vehicle: water) was 122 % of control and the T/C (dose: 2.0 mg/kg/injection, schedule: Q01DX010 (sc), vehicle: water) was 68 % of control and 70 % of control and 91 % of control.

For `CCC1CC2CN(CCc3c([nH]c4ccccc34)C(C(=O)OC)(c3cc4c(cc3OC)N(C)C3C(O)(C(=O)OC)C(OC(C)=O)C5(CC)C=CCN6CCC43C65)C2)C1` (configuration not stated), the T/C (dose: 4.0 mg/kg/injection, schedule: Q04DX003 (sc), vehicle: saline) was 63 % of control and 64 % of control, the T/C (dose: 4.0 mg/kg/injection, schedule: Q04DX003 (sc), vehicle: suspension in saline) was 31 % of control and 33 % of control and the T/C (dose: 16.0 mg/kg/injection, schedule: Q04DX003 (sc), vehicle: saline) was 6 % of control and 12 % of control.

With `CN(C)c1ccc2c(N(C)C)cc(N(C)C)nc2c1` the T/C (dose: 9.38 mg/kg/injection, schedule: Q04DX003 (sc), vehicle: Klucel (hydroxypropylcellulose) (HPC)) was 102 % of control, the T/C (dose: 18.75 mg/kg/injection, schedule: Q04DX003 (sc), vehicle: Klucel (hydroxypropylcellulose) (HPC)) was 123 % of control and the T/C (dose: 37.5 mg/kg/injection, schedule: Q04DX003 (sc), vehicle: Klucel (hydroxypropylcellulose) (HPC)) was 96 % of control. For the same molecule, the T/C [1] was 154 % of control.

In the case of `Cn1/c2cc/c1=C(\c1ccc(S(=O)(=O)O)cc1)c1ccc([n-]1)/C(c1ccc(S(=O)(=O)O)cc1)=c1/cc/c([nH]1)=C(\c1ccc(S(=O)(=O)O)cc1)c1ccc([n-]1)/C=2c1ccc(S(=O)(=O)O)cc1.O.O=S(=O)(O)C(F)(F)F.[Cu+2]`, the T/C (dose: 200.0 mg/kg/injection, schedule: Q04DX003 (sc), vehicle: suspension in saline) is reported as 100 % of control, the T/C (dose: 400.0 mg/kg/injection, schedule: Q04DX003 (sc), vehicle: suspension in saline) is reported as 109 % of control and the T/C (dose: 800.0 mg/kg/injection, schedule: Q04DX003 (sc), vehicle: suspension in saline) is reported as 94 % of control.

`CC(C)[C@](O)(C(=O)OCC1=CCN2CC[C@@H](O)[C@@H]12)[C@H](C)O` was tested, and the T/C (dose: 150.0 mg/kg/injection, schedule: Q04DX003 (sc), vehicle: water) was 80 % of control, the T/C (dose: 300.0 mg/kg/injection, schedule: Q04DX003 (sc), vehicle: water) was 91 % of control and the T/C (dose: 600.0 mg/kg/injection, schedule: Q04DX003 (sc), vehicle: water) was 82 % of control. The T/C (dose: 1200.0 mg/kg/injection, schedule: Q04DX003 (sc), vehicle: water) was 70 % of control.

With `OC1CCCC2CCCNC12` (configuration not stated) the T/C (dose: 37.5 mg/kg/injection, schedule: Q04DX003 (sc), vehicle: saline with Tween-80) was 81 % of control, the T/C (dose: 75.0 mg/kg/injection, schedule: Q04DX003 (sc), vehicle: saline with Tween-80) was 93 % of control and the T/C (dose: 150.0 mg/kg/injection, schedule: Q04DX003 (sc), vehicle: saline with Tween-80) was 75 % of control.

For `Nc1cc2c3c(cccc3c1)C(=O)N(CCN1CCCC1)C2=O`, the T/C (dose: 50.0 mg/kg/injection, schedule: Q04DX003 (sc), vehicle: saline with Tween-80) was 42 % of control, the T/C (dose: 100.0 mg/kg/injection, schedule: Q04DX003 (sc), vehicle: saline with Tween-80) was 79 % of control and the T/C (dose: 200.0 mg/kg/injection, schedule: Q04DX003 (sc), vehicle: saline with Tween-80) was 108 % of control. The T/C (dose: 400.0 mg/kg/injection, schedule: Q04DX003 (sc), vehicle: saline with Tween-80) was 46 % of control.

`Cc1cn(C2CC(O)C(CO)O2)c(=O)[nH]c1=O` (configuration not stated) was tested, and the T/C (dose: 800.0 mg/kg/injection, schedule: Q04DX003 (sc), vehicle: saline) was 94 % of control, the T/C (dose: 1600.0 mg/kg/injection, schedule: Q04DX003 (sc), vehicle: saline) was 70 % of control and the T/C (dose: 3200.0 mg/kg/injection, schedule: Q04DX003 (sc), vehicle: saline) was 71 % of control. For the same molecule, the T/C (dose: 6400.0 mg/kg/injection, schedule: Q04DX003 (sc), vehicle: saline) was 61 % of control.

Source: PubChem BioAssay AID264 (DTP/NCI, 2004)
